From article PMC8134483 (Scientific Reports, 2021)
Like-named read-outs stand apart in the source and are kept apart here.

Experiments:
[1] = target: T1, hCB1R (Homo sapiens, UniProt P21554); test: biochemical; type: binding; details: for CB1R versus CB2R selectivity, receptor affinity: CB1R vs CB2R [^3H]CP55,940 binding; for CB1R [^3H]CP55,940 Emin: bottom of the concentration–response curve, mean ± SEM
T1 construct: expressed in transfected cells; host or cells: CHO-K1

[2] = tested on: male C57Bl/6 mice; test: Anti-nociception, tail flick assay; type: in vivo; details: 0.1–10 mg/kg i.p.; 20 min; 52 °C; % MPE 20 s
Method: (§1) Adult male C57BL/6 mice aged 6–10 weeks (mean weight 24 ± 0.5 g) were purchased from Charles River Labs (Senneville, QC). Animals were group housed (three per cage) with ad libitum access to food, water, and environmental enrichment and maintained on a 12 h light/dark cycle. Mice were randomly assigned to receive i.p. injections of vehicle (1:1:18 ethanol:emulphor:saline) or 0.1–10 mg/kg SCRA (n ≥ 4 per group). All protocols have been described previously and were in accordance with the guidelines detailed by the Canadian Council on Animal Care and approved by the Animal Research Ethics Board and the Scientific Merit Review Committee for Animal Behaviour at the University of Saskatchewan. […]
(§2) Modified tetrad testing (catalepsy, body temperature, tail flick assay) was conducted according to previously described methods, which are summarized briefly here. […] Catalepsy was assessed in the ring holding assay 5 min following injection with mouse forepaws clasped to a 5 mm ring positioned 5 cm above the surface of the testing space. The length of time the ring was held was recorded (s) to a maximum time of 60 s (i.e. MPE = 60 s). Internal body temperature was measured 15 min after injection. Anti-nociception was determined by assessing tail flick latency 20 min after injection. […]

[3] = target: T2, hCB2R (Homo sapiens, UniProt P34972); test: CB2R bias analysis (operational model, cAMP inhibition vs βarrestin2); type: cell-based; details: CP55,940 as reference agonist; >0 cAMP bias, <0 βarrestin2 bias
T2 construct: host or cells: CHO-K1 (PathHunter)
T2 sequence (P34972 whole entry): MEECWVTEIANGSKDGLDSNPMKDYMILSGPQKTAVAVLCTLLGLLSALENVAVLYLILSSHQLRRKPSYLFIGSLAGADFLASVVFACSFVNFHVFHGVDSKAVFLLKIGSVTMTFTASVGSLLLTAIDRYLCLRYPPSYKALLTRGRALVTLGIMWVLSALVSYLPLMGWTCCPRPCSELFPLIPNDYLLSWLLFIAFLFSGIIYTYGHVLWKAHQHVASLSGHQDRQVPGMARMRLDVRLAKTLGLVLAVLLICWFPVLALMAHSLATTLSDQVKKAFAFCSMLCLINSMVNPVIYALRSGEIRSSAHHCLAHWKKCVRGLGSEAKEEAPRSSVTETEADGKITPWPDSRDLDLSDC
Method: (§3) Estimates of Ki, EC50, Emin, and Emax were determined using non-linear regression with variable slope (four parameters) (GraphPad, Prism, v. 8.0). […] One-way analysis of variance (ANOVA), followed by Tukey’s post-hoc test, was used for statistical analyses (p < 0.05 determined to be significant); and Bartlett’s test was used to confirm homogeneity of variance (GraphPad).

[4] = tested on: male C57Bl/6 mice; test: Internal body temperature; type: in vivo; details: 0.1–10 mg/kg i.p.; 15 min
Method: as §1, §2

[5] = target: T2, hCB2R; test: HitHunter inhibition of FSK-stimulated cAMP, CB2R; type: cell-based
[6] = target: T2, hCB2R; test: [^3H]CP55,940 competition (radioligand displacement) binding to CB2R; details: for CB2R [^3H]CP55,940 Emin: bottom of the concentration–response curve, mean ± SEM
[7] = target: T1, hCB1R; test: cell-based; type: cell-based; details: for EC50: CHO hCB1R, 10 µM FSK, 90 min, value with 95% CI, read-out: CB1R cAMP Inhibition EC50; for Emax: read-out: CB1R cAMP Inhibition Emax
[8] = target: T1, hCB1R; test: CB1R bias analysis (operational model, cAMP inhibition vs βarrestin2); type: cell-based; details: for Observed CB1R bias in cell culture: cAMP inhibition vs βarrestin2
Method: as §3

[9] = tested on: male C57Bl/6 mice; test: Catalepsy, ring holding assay; type: in vivo; details: 0.1–10 mg/kg i.p.; 5 min; % MPE 60 s
Method: as §1, §2

[10] = target: T2, hCB2R; test: PathHunter βarrestin2 recruitment, CB2R; type: cell-based; details: for βarrestin2 recruitment to CB2R, activity in words: relative to CP55,940
[11] = target: T1, hCB1R; test: cell-based; type: cell-based; details: for EC50: CHO hCB1R, 90 min, value with 95% CI, read-out: CB1R βarrestin2 recruitment EC50; for Emax: read-out: CB1R βarrestin2 recruitment Emax; for βarrestin2 recruitment to CB1R, activity in words: relative to CP55940
[12] = tested on: male C57Bl/6 mice; test: Elevated plus maze (EPM); type: in vivo; details: 1.0 mg/kg i.p., 30 min after treatment, 5 min trial; for EPM total arm entries: vs vehicle
Method: Adult male C57BL/6 mice aged 6–10 weeks (mean weight 24 ± 0.5 g) were purchased from Charles River Labs (Senneville, QC). Animals were group housed (three per cage) with ad libitum access to food, water, and environmental enrichment and maintained on a 12 h light/dark cycle. Mice were randomly assigned to receive i.p. injections of vehicle (1:1:18 ethanol:emulphor:saline) or 0.1–10 mg/kg SCRA (n ≥ 4 per group). All protocols have been described previously and were in accordance with the guidelines detailed by the Canadian Council on Animal Care and approved by the Animal Research Ethics Board and the Scientific Merit Review Committee for Animal Behaviour at the University of Saskatchewan. The following steps were taken to ensure our study was in keeping with the ARRIVE guidelines: (1) power analyses were conducted to determine the minimum number of animals required for the study; (2) animals were purchased—rather than bred—to limit animal waste; and (3) all assessments of animal behaviour were made by individuals blinded to the treatment group,[57].
EPM was conducted according to methods adapted from Marks et al.. The EPM was built from a plywood base painted blue with blue corrugated plastic floor and walls. The floor of the maze was composed of perpendicular interlocking arms (110 cm long × 10 cm wide) with two arms having 45 cm walls (closed arms) and two arms having no walls and a 0.5 cm edge (open arms), all elevated 45 cm from the ground. Trials began with the mouse in the central zone facing an open arm. Trials lasted 5 min and began 30 min after SCRA treatment. An arm entry was considered to be all four limbs leaving the central zone. Arm entries and the percent time spent in open versus closed arms were recorded by an observer blinded to the treatment group. Less time in the open arms and more time in the closed arms was used as a model of anxiogenic behaviour.

T1 sequence (P21554 whole entry): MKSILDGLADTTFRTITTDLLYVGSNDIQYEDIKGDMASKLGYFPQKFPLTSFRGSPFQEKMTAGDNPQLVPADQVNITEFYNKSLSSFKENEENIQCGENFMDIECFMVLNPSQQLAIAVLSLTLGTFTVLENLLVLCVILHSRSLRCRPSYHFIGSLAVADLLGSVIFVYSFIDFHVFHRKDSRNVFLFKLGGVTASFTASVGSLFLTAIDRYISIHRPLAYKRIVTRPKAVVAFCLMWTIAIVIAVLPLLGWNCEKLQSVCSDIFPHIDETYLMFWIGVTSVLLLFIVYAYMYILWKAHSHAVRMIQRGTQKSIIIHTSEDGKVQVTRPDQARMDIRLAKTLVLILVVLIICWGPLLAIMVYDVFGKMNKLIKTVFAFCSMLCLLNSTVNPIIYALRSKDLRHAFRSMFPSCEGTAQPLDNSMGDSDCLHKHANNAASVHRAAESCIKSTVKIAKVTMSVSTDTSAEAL

Row | SMILES | Ki [1] [nM] | CB1R versus CB2R selectivity, receptor affinity [1] | CB1R [^3H]CP55,940 Emin [1] [%] | Anti-nociceptive response, tail flick [2] | CB2R bias between cAMP inhibition and βarrestin2 recruitment, ∆∆LogR (cAMP—βarr2), in words [3] | Body temperature (hypothermia) response [4] | EC50 [5] [nM] | Emax [5] [%] | Ki [6] [nM] | CB2R [^3H]CP55,940 Emin [6] [%] | EC50 [7] [nM] | Emax [7] [%] | Observed CB1R bias in cell culture [8] | Catalepsy response [9] | EC50 [10] [nM] | Emax [10] [%] | βarrestin2 recruitment to CB2R, activity in words [10] | EC50 [11] [nM] | Emax [11] [%] | βarrestin2 recruitment to CB1R, activity in words [11] | also measured
1 | COC(=O)[C@@H](NC(=O)c1nn(CCCCF)c2ccccc12)C(C)(C)C [4-fluoro MDMB-BINACA] | 99 | greater affinity at CB2R relative to CB1R | 52 ± 7.5 | full agonist | significant bias toward the recruitment of βarrestin2 | full agonist | 0.56 | 95 ± 11 | 0.41 | 57 ± 11 | 10 | 87 ± 5.6 | βarrestin2 | full agonist | 120 | 130 ± 8.2 | greater potency and produced supramaximal EMax responses | 88 | 240 ± 10 | greater potency and produced supramaximal EMax responses | Affinity for CB2R compared with CP55,940, in words [6]: significantly greater affinity; CB1R bias between cAMP inhibition and βarrestin2 recruitment, ∆∆LogR (cAMP—βarr2), in words ([8]; CP55,940 as reference agonist, >0 cAMP bias, <0 βarrestin2 bias): significant bias toward the recruitment of βarrestin2; EPM time in the central quadrant [12]: majority of their time in the central quadrant immobile; EPM time in the open arms [12]: approximately the same amount of time in the open arm as vehicle-treated mice; EPM total arm entries [12]: reduced total arm entries
2 | CC(C)CCn1cc(C(=O)c2ccc3ccccc3c2)c2ccccc21 [JWH 018 2'-naphthyl-N-(3-methylbutyl) isomer] | 0.93 | greater affinity at CB1R relative to CB2R | 9.6 ± 2.7 | full agonist | obligate cAMP-biased ligands | did not change body temperature | 0.52 | 110 ± 9.2 | 7.5 | 54 ± 3.5 | 98 | 80 ± 9.1 | G protein | partial agonist | > 10000 | 6.1 ± 1.3 | Inactive at βarrestin2 | > 10000 | 4.9 ± 0.51 | Inactive at βarrestin2 | CB1R versus CB2R selectivity, cAMP inhibition potency ([7]; CB1R vs CB2R): more potent at CB2R relative to CB1R; βarrestin2 recruitment to CB2R, activity in words ([10]; listed as JWH 018 2′-napthyl-N-(3-methylbutyl) isomer): inactive in βarrestin2; EPM open arm entries [12]: increased open arm entry; EPM time in the open arms [12]: greater amount of time spent in the open arms; EPM total arm entries [12]: did not change total arm entries
